Assay [1] has as its target T1, G-protein coupled receptor 55 (Homo sapiens, UniProt Q9Y2T6). Briefly: inhibition of LPI-stimulated GPR55 beta-arrestin translocation – imaging, U2OS, beta-arrestin-GFP, LPI agonist, primary screen (AID 2013).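 Further: antagonist potency measured as reduced agonist-driven arrestin aggregation.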 It is filed as functional.
For assay [2], the target named is T2, Heat shock factor protein 1 (Mus musculus, UniProt P38532).
T2 sequence (P38532 whole entry): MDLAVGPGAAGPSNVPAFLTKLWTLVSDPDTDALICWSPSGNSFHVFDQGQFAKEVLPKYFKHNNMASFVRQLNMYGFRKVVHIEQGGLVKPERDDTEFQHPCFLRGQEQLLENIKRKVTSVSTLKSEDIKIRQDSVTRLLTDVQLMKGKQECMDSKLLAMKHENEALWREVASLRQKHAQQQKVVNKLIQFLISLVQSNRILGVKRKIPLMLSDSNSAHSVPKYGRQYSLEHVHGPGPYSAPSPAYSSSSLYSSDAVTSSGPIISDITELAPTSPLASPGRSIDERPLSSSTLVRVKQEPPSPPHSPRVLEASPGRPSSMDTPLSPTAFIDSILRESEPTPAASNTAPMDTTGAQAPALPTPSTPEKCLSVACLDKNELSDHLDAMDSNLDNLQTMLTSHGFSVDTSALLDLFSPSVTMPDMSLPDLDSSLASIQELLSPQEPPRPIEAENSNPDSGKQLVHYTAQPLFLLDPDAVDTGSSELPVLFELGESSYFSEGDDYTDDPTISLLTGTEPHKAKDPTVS
Briefly: enhancement of HSF1-driven luciferase signal – cell-based, NIH3T3, luminescence, dose retest, confirmation (AID 435004).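 Further: stress induced by proteasome inhibitor MG132 added 30 min after compound; luciferase reporter driven by HSF1 response element in NIH3T3 cells; actives raise luminescence as potentiators of the MG132 stress response.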 It is filed as functional.

Assay [3] can be described thus: luciferase reporter signal suppression in cells – H4 neuroglioma cells, luminescence, dose response (AID 1990). Type of assay: functional, cell-based.
Assay [4] can be described thus: alpha-synuclein stem-loop luciferase translation blockers – H4 neuroglioma cells, luminescence, confirmation (AID 1988). Type of assay: functional, cell-based.
For assay [5], the target named is T3, Kappa-type opioid receptor (Homo sapiens, UniProt P41145). Type of assay: functional.
T3 sequence (P41145 whole entry): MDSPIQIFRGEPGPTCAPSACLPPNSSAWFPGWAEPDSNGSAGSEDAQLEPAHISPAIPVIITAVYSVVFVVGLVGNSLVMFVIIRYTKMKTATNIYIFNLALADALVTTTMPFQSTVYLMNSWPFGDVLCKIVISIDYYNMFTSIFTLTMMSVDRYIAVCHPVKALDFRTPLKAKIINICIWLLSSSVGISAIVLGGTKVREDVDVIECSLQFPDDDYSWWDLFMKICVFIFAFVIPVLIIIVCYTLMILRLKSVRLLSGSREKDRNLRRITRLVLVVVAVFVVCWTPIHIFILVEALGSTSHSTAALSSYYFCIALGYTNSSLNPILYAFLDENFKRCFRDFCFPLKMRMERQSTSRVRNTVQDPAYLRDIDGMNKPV
A short description of assay [6]: HepG2 cell cytotoxicity, dose response, cytotoxicity control for non-replicating M. tuberculosis project (AID 489018). It is filed as functional. The settings on record: Mycobacterium tuberculosis.
For assay [7], the target named is T3, Kappa-type opioid receptor. Type of assay: functional. The source holds these as a separate data set.
For the next assay, the target named is Beta-galactosidase (Escherichia coli, UniProt Q8VNN2). Type of assay: functional.
Chain of Beta-galactosidase (Q8VNN2 whole entry, the tested form may be a part): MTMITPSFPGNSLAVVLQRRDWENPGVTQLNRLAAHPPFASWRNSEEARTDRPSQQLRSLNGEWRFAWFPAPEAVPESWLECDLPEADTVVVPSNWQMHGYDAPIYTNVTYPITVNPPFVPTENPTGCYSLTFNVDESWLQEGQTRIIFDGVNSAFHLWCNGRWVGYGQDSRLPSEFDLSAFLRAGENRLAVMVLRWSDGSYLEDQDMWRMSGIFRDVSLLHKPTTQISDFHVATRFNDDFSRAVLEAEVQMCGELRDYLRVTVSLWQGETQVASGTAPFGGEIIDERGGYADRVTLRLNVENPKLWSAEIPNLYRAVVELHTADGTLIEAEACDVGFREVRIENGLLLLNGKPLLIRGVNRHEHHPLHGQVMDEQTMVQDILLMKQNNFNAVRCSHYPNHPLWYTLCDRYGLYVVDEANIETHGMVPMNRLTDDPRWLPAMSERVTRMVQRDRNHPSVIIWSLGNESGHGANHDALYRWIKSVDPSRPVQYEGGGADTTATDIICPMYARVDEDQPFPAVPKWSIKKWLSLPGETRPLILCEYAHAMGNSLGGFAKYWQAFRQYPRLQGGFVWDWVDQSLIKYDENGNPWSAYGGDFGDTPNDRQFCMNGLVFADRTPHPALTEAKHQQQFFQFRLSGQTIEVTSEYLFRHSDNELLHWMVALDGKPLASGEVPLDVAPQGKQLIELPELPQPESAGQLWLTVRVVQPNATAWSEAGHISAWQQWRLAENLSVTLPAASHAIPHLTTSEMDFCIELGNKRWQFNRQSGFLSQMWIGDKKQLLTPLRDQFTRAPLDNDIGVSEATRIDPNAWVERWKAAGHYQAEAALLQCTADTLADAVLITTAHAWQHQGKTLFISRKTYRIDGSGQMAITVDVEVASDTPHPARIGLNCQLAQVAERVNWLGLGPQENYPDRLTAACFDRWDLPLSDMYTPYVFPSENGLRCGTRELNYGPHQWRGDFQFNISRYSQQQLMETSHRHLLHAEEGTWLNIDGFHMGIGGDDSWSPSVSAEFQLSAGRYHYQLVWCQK
The subject of a further assay is CHO. Briefly: CHO cell viability loss, potency – luminescence, cytotoxicity control for TLR9-MyD88 binding inhibitor project, dose response (AID 588339).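 Further: CHO cells stably coexpressing TLR9 and MyD88 fusions from primary screen; compound exposure lasted 48 hours before viability readout.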 Type of assay: functional, cell-based, hamster. Particulars: Cricetulus griseus.
A short description of assay [8]: Luminescence Cell-Based Dose Response HTS to Identify Inhibitors of 5'UTR Stem-Loop Driven Prion Protein mRNA Translation in H4 Neuroglioblastoma Cells. [Related pubchem assays: 1827 (Project Summary), 1813 (Primary HTS)]. It is filed as functional.
Another assay in a line: cells. Type of assay: functional.
A further assay deals with Beta Lactamase (Pseudomonas aeruginosa, UniProt Q932Y6). Briefly: BLA reporter interference, concentration series – BLA reporter cells, FRET fluorescence, artefact control for TLR9-MyD88 binding inhibitor project, dose response (AID 588341).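 Further: cell based assay in CHO-K1 cells stably expressing beta-lactamase.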 It is filed as cell-based.
Chain of Beta Lactamase (Q932Y6 whole entry): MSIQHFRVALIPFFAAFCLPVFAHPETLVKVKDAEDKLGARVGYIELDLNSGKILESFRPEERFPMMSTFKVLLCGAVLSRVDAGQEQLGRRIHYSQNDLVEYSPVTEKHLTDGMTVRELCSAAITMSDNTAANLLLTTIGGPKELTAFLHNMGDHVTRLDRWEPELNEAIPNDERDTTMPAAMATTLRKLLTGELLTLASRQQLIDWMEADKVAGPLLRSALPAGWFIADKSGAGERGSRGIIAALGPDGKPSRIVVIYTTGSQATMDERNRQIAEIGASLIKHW
The nature of assay [9]: Vero E6 cell cytotoxicity, dose response, cytotoxicity control for non-replicating M. tuberculosis project, secondary assay (AID 492998). It is filed as functional, VeroE6. Particulars: Vero C1008.
A short description of assay [10]: THP-1 cell cytotoxicity, dose response, cytotoxicity control for non-replicating M. tuberculosis project (AID 489025). It is filed as functional.
The subject of the next assay is J774.A1. Briefly: Confirmation of image-based Screening Assay for Inhibitors of Phagocytosis. [Related pubchem assays (depositor defined):AID1029, AID1643]. Type of assay: functional, cell-based. Particulars: Mus musculus.
Assay [11] deals with BJ. Briefly: cells. Type of assay: functional, cell-based. The settings on record: Homo sapiens.
The test system of assay [12] is BJ. Briefly: BJ-TERT fibroblast viability loss – cell-based, RAS-independent, luminescence, dose response (AID 1933). Type of assay: functional. The settings on record: Homo sapiens.
The nature of assay [13]: DRD fibroblast viability loss – cell-based, non-viral oncogenic, luminescence, dose response (AID 1934). It is filed as functional. The settings on record: Homo sapiens.
Assay [14] deals with BJ. Briefly: BJ-TERT-LT-ST fibroblast viability loss – cell-based, RAS-independent, luminescence, dose response (AID 1935).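 Further: BJ fibroblasts immortalized with TERT plus LT and ST oncogenes.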 Type of assay: functional. Particulars: Homo sapiens.
Assay [15] has as its target T4, Cannabinoid receptor 2 (Homo sapiens, UniProt P34972). Briefly: SAR analysis of agonists of the Cannabinoid Receptor 2 using an Image-Based Assay - Set 2. [Related pubchem assays (depositor defined):AID1961, AID1965]. It is filed as functional.
Assay [16] concerns the target T4, Cannabinoid receptor 2. Briefly: SAR analysis of antagonists of the Cannabinoid Receptor 2 using an Image-Based Assay - Set 2. [Related pubchem assays (depositor defined):AID1961, AID1965]. It is filed as functional.
The target of assay [17] is T5, G-protein coupled receptor 35 (Homo sapiens, UniProt Q9HC97). Briefly: SAR analysis of Agonists of the GPR35 Receptor using an Image-Based Assay - Set 3. [Related pubchem assays (depositor defined):AID1961, AID1965]. Type of assay: functional.
T5 sequence (Q9HC97 whole entry): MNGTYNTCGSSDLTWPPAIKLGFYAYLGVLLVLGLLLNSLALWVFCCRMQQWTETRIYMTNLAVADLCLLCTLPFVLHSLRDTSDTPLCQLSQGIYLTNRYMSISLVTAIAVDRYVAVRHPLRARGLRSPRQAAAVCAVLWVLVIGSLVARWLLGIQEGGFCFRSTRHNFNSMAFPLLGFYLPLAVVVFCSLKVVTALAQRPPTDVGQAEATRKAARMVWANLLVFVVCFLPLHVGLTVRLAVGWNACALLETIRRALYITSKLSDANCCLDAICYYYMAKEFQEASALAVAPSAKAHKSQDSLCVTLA
Assay [18] concerns the target T6, Cannabinoid receptor 1 (Homo sapiens, UniProt P21554). Briefly: SAR analysis of antagonists of the Cannabinoid Receptor 1 using an Image-Based Assay - Set 3. [Related pubchem assays (depositor defined):AID1961, AID1965]. It is filed as functional.
In assay [19] the target is T1, G-protein coupled receptor 55. Briefly: SAR analysis of selective Agonists of GPR55 using an Image-Based Assay - Set 2. [Related pubchem assays (depositor defined):AID1961, AID1965]. Type of assay: functional.
For assay [20], the target named is T5, G-protein coupled receptor 35. Briefly: SAR analysis of Antagonists of the GPR35 Receptor using an Image-Based Assay - Set 4. [Related pubchem assays (depositor defined):[…]]. It is filed as functional.
Assay [21] addresses T6, Cannabinoid receptor 1. Briefly: SAR analysis of agonists of the Cannabinoid Receptor 1 using an Image-Based Assay - Set 3. [Related pubchem assays (depositor defined):AID1961, AID1965]. It is filed as functional.

Activity calls are given as the source filed them. Some results are limits rather than exact numbers.

T6 sequence (P21554 whole entry): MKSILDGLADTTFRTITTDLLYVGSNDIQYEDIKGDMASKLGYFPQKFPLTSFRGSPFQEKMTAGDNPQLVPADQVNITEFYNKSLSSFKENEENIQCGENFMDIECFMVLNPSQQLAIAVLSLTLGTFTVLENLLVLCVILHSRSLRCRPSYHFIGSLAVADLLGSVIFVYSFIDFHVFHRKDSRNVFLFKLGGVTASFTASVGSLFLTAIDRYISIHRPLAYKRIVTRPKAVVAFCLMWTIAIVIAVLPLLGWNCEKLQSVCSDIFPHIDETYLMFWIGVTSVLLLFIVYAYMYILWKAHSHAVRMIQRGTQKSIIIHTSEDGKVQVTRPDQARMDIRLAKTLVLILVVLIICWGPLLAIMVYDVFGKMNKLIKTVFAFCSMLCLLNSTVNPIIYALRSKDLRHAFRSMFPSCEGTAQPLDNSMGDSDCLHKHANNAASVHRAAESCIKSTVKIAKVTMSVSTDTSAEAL
T4 sequence (P34972 whole entry): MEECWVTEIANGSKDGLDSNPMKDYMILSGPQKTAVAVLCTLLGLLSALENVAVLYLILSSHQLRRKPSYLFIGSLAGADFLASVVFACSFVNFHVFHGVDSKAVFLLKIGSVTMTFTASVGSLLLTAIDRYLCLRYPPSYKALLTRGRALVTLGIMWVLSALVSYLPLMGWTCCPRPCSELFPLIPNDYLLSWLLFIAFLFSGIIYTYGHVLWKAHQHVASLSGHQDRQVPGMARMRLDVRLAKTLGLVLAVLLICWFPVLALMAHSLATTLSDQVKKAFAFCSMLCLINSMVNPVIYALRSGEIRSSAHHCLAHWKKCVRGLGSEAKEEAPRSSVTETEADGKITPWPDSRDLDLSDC
T1 sequence (Q9Y2T6 whole entry): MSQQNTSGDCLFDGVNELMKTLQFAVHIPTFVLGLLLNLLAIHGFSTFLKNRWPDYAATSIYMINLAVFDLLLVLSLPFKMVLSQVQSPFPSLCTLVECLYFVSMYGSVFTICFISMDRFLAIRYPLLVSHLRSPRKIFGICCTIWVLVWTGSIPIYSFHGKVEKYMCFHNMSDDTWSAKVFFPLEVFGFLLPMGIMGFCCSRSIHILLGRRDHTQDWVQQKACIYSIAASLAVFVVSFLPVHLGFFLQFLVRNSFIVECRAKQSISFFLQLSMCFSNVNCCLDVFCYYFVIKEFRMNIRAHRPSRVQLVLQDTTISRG

As to `CCOC(=O)c1c(NC(=O)C2=C(C)N=C(S)NC2c2ccc(C)cc2)sc(C)c1C` (stereo unspecified), in [1], the IC50 was < 0.5 µM (active).

As to `CS(=O)(=O)c1sc(C#N)c2c1C(=O)CC(c1ccccc1)C2` (stereo unspecified), the EC50 in assay [2] was 17.8 µM (active); in assay [3], > 120 µM (not active); in assay [4] it was 7.83 µM (active); on Beta-galactosidase it was > 31.5 µM (inactive); in assay [8], 10.3 µM (active). For the same molecule, the IC50 is 4.62 µM (active) in assay [5]; 3.24 µM in assay [7]; 2.74 µM (active) with CHO; 0.78 µM (active) in “cells”; 7.08 µM (active) at Beta Lactamase. For the same molecule, the CC50 was 4.85 µM (active) in [6], 5.26 µM (active) in assay [9] and 4.22 µM (active) in [10].

Turning to `CCN1CCN(c2ncc3c(n2)CC(c2cc(OC)c(OC)c(OC)c2)CC3=O)CC1` (stereo unspecified), the IC50 in the assay with J774.A1 is 0.419 µM (active). For the same molecule, the EC50 is 124 µM (active) with BJ [11], 5.01 µM (active) with BJ [12], 2.34 µM (active) in assay [13] and 21.8 µM (active) with BJ [14].

Turning to `CCC1CCc2sc(C(=O)Nc3cc(S(=O)(=O)N4CCOCC4)ccc3OC)cc2C1` (stereo unspecified), the EC50 at Cannabinoid receptor 2 [15] is > 32 µM (inactive); in [17], > 32 µM (inactive); in assay [19], 0.409 µM (active); on Cannabinoid receptor 1 [21], > 32 µM (inactive). The IC50 (on Cannabinoid receptor 2 [16]; on Cannabinoid receptor 1 [18]; in assay [20]) was > 32 µM (inactive) each time.

In general, IC50 refers to the concentration that inhibits the measured activity by half. What is called EC50 is the concentration giving half of the maximal effect. The CC50 is the concentration giving 50% cytotoxicity.
